Data as given in US10988523B2, “Modified lipidated Relaxin B chain peptides and their therapeutic use” (Sanofi, priority 2018, dated 2021).
*1 amine or outer side, *2 acyl side, *3 side chain or, on linkers, in order; H or OH if unused. Where a SMILES comes first, the peptide text is derived from it. Side-chain parts run from the residue outwards. [ ]: non-standard residue; d: D form. The star is where a group is joined. γGlu = O=C(O)[C@H](CCC(=O)[*:2])N[*:1]; Stearoyl = CCCCCCCCCCCCCCCCCC(=O)*; Palmitoyl = CCCCCCCCCCCCCCCC(=O)*; Nle = CCCC[C@H](N)C(=O)O; AEEA = NCCOCCOCC(=O)O; Aib = CC(C)(N)C(=O)O

Columns and labels:
[1] = Pharmacokinetic (PK) determination after i.v. or s.c. administration to rats; type: in vivo, Sprague Dawley rats; details: Sprague Dawley, Rat PK; for C0 / half-life: iv, 1 mg/kg i.v.; for C0: extrapolated plasma concentration at t=0, read-out: C0; for half-life / Cmax / Tmax / bioavailability: plasma; for half-life: read-out: T½ (converted); for Cmax / Tmax: sc, 3 mg/kg s.c.; for bioavailability: subcutaneous, 3 mg/kg s.c. vs 1 mg/kg i.v., dose-corrected AUC ratio
Summary of the method: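 Non-compartmental analysis of plasma LC/MS data (protein precipitation, BLQ taken as zero) gave T½, C0 (i.v.), Cmax/Tmax (s.c.) and F% from dose-corrected AUCs. Dosing: 3 mg/kg s.c. or 1 mg/kg i.v. in PBS to Sprague Dawley rats, purity- and salt-corrected.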

[2] = target: T1, RXFP1 (Homo sapiens, UniProt Q9HBX9); assay: OVCAR5 cAMP assay (HTRF), RXFP1 agonist activity; type: cell-based; details: for EC50: OVCAR5 cells, cAMP HTRF, read-out: EC50 (nM), OVCAR 5 cells (cAMP); for Emax: OVCAR-5, maximal cAMP relative to H2-relaxin maximum (100%), read-out: EMax, OVCAR 5 cells (cAMP)
T1 construct: OVCAR5 cells expressing endogenous RXFP1; endogenous in cells; host or cells: OVCAR5 cells
T1 sequence (Q9HBX9 1-757): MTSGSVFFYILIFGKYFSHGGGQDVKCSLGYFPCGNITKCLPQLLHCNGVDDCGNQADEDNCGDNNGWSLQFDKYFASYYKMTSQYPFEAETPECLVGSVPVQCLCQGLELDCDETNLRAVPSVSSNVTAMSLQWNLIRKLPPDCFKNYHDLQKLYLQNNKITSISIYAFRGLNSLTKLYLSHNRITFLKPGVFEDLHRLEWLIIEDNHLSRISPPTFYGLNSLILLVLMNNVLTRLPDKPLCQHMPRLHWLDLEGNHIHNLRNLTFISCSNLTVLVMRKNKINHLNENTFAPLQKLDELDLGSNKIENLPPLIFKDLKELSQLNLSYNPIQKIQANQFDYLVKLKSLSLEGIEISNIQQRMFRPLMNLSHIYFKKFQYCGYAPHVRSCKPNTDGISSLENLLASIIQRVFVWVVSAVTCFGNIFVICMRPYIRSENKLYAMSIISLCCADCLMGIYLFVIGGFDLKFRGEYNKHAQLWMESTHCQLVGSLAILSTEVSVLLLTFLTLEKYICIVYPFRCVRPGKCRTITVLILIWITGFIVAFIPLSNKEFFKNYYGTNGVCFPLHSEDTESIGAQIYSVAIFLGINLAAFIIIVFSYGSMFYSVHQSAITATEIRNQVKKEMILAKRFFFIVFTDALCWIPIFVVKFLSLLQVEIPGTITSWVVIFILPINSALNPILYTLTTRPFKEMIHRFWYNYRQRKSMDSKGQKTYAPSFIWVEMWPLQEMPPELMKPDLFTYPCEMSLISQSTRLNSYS
Summary of the method: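 cAMP accumulation readout: after 1 mM IBMX for 40 min, endogenous-RXFP1 OVCAR5 cells got rising peptide concentrations without FCS, 30 min, 37° C, then lysis with HTRF cAMP reagents. Nonlinear regression gave EC50; Emax expressed relative to H2-relaxin maximum, same occasion.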

[3] = Stability testing of peptides in human plasma or blood; type: in vitro ADME; details: 37° C.; for Human Plasma stability % remaining T = 0: human plasma or blood, T = 0 (reference), 5 μM
Protocol: (§1) Prior to the testing of stability in plasma (or blood) of a peptide batch, its purity (HPLC-UV) was determined.
(§2) Rat and Human plasma: anti-coagulant sodium or lithium heparin.
(§3) Rat and Human blood: anti-coagulant sodium or lithium heparin. • Stock solution: • 100 μM solution of study compound in 50 mM Phosphate buffer pH 7.4. • 950 μL plasma (or blood) was pre-incubated for 5 min at 37° C. 50 μL of compound stock solution was added. Final compound concentration=5 μM. Vortex and transfer 1504, plasma (or blood) into an Eppendorf for each time point. The time points […] were carried out in duplicate for each species.
(§4) After incubation 150 μL, plasma (or blood) was extracted with 600 μL, Acetonitrile containing with 1% TFA. Then, vortexed and centrifuged 10 min at 14600 rpm. 200 μL supernatant was dried under N2. The sample was reconstituted in 200 μL of H2O/CH3CN 98/2+0.1% FA+50 ng/ml Labetalol and analyzed using the analytical system used in solubility and stability studies.
(§5) For determination of the amount of the remaining peptide, the peak areas of the target compound at t0 and each time point […] were compared, resulting in “% remaining peptide”, following the equation: % remaining peptide=[(peak area peptide time)×100]/peak area peptide t0. The stability is expressed as “% remaining peptide”.

[4] = Stability testing of peptides in rat plasma or blood; type: in vitro ADME; details: 37° C.; for Rat plasma stability % remaining T = 0: rat plasma or blood, T = 0 (reference), 5 μM
Protocol: as §1, §2, §3, §4, §5

Row | C0 [1] [nM] | half-life [1] [h] | Cmax [1] [nM] | Tmax [1] [h] | bioavailability [1] [%] | EC50 [2] [nM] | Emax [2] [%] | Human Plasma stability % remaining T = 0 [3] [%] | remaining at 1 h, 5 µM ([3]; human plasma, 1 h, read-out: Human Plasma stability % remaining 1 h) [%] | remaining at 4 h, 5 µM ([3]; human plasma, 4 h, read-out: Human Plasma stability % remaining 4 h) [%] | Rat plasma stability % remaining T = 0 [4] [%] | remaining at 1 h, 5 µM ([4]; rat plasma, read-out: Rat plasma stability % remaining 1 h) [%] | remaining at 4 h, 5 µM ([4]; rat plasma, read-out: Rat plasma stability % remaining 4 h) [%] | remaining at 1 h, 5 µM ([4]; whole blood, rat blood, read-out: Rat stability in blood % remaining 1 h) [%] | remaining at 4 h, 5 µM ([4]; whole blood, rat blood, read-out: Rat stability in blood % remaining 4 h) [%] | Compound
1 | 2600 | 2.5 | 1600 | 8 | 27 | 0.63 | 85 | 100 | 98 | 106 | 100 | 93 | 110 |  |  | CCCCCCCCCCCCCCCC(=O)N[C@@H](CCC(=O)NCCCC[C@H](NC(=O)CC[C@H](NC(=O)CC[C@H](NC(=O)CC[C@H](NC(=O)COCCOCCNC(=O)COCCOCCNC(=O)COCCOCCNC(=O)[C@H](CCCCN)NC(=O)[C@H](CCCCN)NC(=O)[C@H](CCCCN)NC(=O)[C@H](CCCNC(=N)N)NC(=O)C(C)(C)NC(=O)[C@H](CO)NC(=O)[C@H](Cc1c[nH]c2ccccc12)NC(=O)[C@@H](NC(=O)[C@H](CO)NC(=O)[C@H](CCCC)NC(=O)CNC(=O)[C@H](CCC(=O)O)NC(=O)C(C)(C)NC(=O)C(C)(C)NC(=O)[C@@H](NC(=O)[C@H](CCC(N)=O)NC(=O)[C@H](C)NC(=O)[C@H](CCCNC(=N)N)NC(=O)[C@@H](NC(=O)[C@H](CCCCN)NC(=O)[C@H](CCC(=O)O)NC(=O)[C@H](CCCNC(=N)N)NC(=O)CNC(=O)[C@H](CCC(=O)O)NC(=O)[C@H](CC(C)C)NC(C)=O)C(C)C)[C@@H](C)CC)[C@@H](C)O)C(=O)O)C(=O)O)C(=O)O)C(N)=O)C(=O)O [compound 107] (Ac-LEGREKVRAQI[Aib][Aib]EG[Nle]STWS[Aib]RKKK[AEEA][AEEA][AEEA][γGlu][γGlu][γGlu]K([γGlu-Palmitoyl])-NH2)
2 | 4990 | 3 | 2320 | 6 | 42 |  | 95 | 100 |  |  | 100 |  |  | 84 | 92 | CCCCCCCCCCCCCCCCCC(=O)N[C@@H](CCC(=O)N[C@@H](CCC(=O)N[C@@H](CCC(=O)NCCCC[C@H](NC(=O)[C@H](CCCCN)NC(=O)[C@H](CCCNC(=N)N)NC(=O)C(C)(C)NC(=O)[C@H](CO)NC(=O)[C@H](Cc1c[nH]c2ccccc12)NC(=O)[C@@H](NC(=O)[C@H](CO)NC(=O)[C@H](CCCC)NC(=O)CNC(=O)[C@H](CCC(=O)O)NC(=O)C(C)(C)NC(=O)C(C)(C)NC(=O)[C@@H](NC(=O)[C@H](CCC(N)=O)NC(=O)[C@H](C)NC(=O)[C@H](CCCNC(=N)N)NC(=O)[C@@H](NC(=O)[C@H](CCCCN)NC(=O)[C@H](CCC(=O)O)NC(=O)[C@H](CCCNC(=N)N)NC(=O)CNC(=O)[C@H](CCC(=O)O)NC(=O)[C@H](CC(C)C)NC(C)=O)C(C)C)[C@@H](C)CC)[C@@H](C)O)C(N)=O)C(=O)O)C(=O)O)C(=O)O [compound 9] (Ac-LEGREKVRAQI[Aib][Aib]EG[Nle]STWS[Aib]RKK([γGlu-γGlu-γGlu-Stearoyl])-NH2)
3 | 3500 | 3.3 | 2200 | 8 | 63 | 0.32 | 88 |  |  |  |  |  |  |  |  | CCCCCCCCCCCCCCCCCC(=O)N[C@@H](CCC(=O)N[C@@H](CCC(=O)N[C@@H](CCC(=O)NCCOCCOCC(=O)NCCOCCOCC(=O)NCCOCCOCC(=O)NCCCC[C@H](NC(=O)[C@H](CCCCNC(C)=O)NC(=O)[C@H](CCCCN)NC(=O)[C@H](CCCNC(=N)N)NC(=O)C(C)(C)NC(=O)[C@H](CO)NC(=O)[C@H](Cc1ccccc1)NC(=O)[C@@H](NC(=O)[C@H](CO)NC(=O)[C@H](CCCC)NC(=O)CNC(=O)[C@H](CCC(=O)O)NC(=O)C(C)(C)NC(=O)C(C)(C)NC(=O)[C@@H](NC(=O)[C@H](CCCCNC(C)=O)NC(=O)[C@H](C)NC(=O)[C@H](CCCNC(=N)N)NC(=O)[C@@H](NC(=O)[C@H](CCCCN)NC(=O)[C@H](CCC(=O)O)NC(=O)[C@H](CCCNC(=N)N)NC(=O)CNC(=O)[C@H](CCC(=O)O)NC(=O)[C@H](CC(C)C)NC(C)=O)C(C)C)[C@@H](C)CC)[C@@H](C)O)C(N)=O)C(=O)O)C(=O)O)C(=O)O [compound 112] (Ac-LEGREKVRAK(Ac)I[Aib][Aib]EG[Nle]STFS[Aib]RKK(Ac)K([AEEA-AEEA-AEEA-γGlu-γGlu-γGlu-Stearoyl])-NH2)
